The text below walks through data of patent US20230115176A1 (Ra Pharmaceuticals, Inc., priority 2019, published 2023).

A short description of data set [1]: Permeability assay, unidirectional transport, Papp (Example 30, Table 34). The data set is classed as in vitro ADME, canine. As to conditions: dog, pH 7.4; MDCK-WT cell monolayers, A-to-B, 3 μM test compound, 37° C., duplicate determinations. The method in brief: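 MDCK-WT monolayers, grown 3 days on transwells, were given 3 μM test compound in HBSS with 10 mM HEPES and 0.25% BSA, pH 7.4, at 37° C with light agitation. Receiver samples at 30, 60 and 90 min were analysed by LC-MS/MS, and Papp was calculated from duplicate determinations.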

Data set [2] is described as follows: Kinetic solubility in PBS pH 7.4, HPLC-UV (Example 21, Table 27). The data set is classed as physicochemical. As to conditions: phosphate buffered saline, aqueous buffer, kinetic from dmso stock, 0.5 M PBS, shaken minimum 24 h at approximately 25° C., HPLC-UV 270 nm. The method in brief:
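10 mM DMSO stock diluted into 0.05 M PBS pH 7.4 (5% DMSO final), in triplicate, shaken ≥24 h at ~25 °C, then filtered by centrifugation. Supernatant concentration by HPLC-UV at 270 nm against external DMSO standards (15.6–500.0 μM).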

In data set [3] the target is T1, Human C5 (Homo sapiens, UniProt P01031).
T1 construct: purchased Complement Technology
T1 sequence (P01031 19-1676): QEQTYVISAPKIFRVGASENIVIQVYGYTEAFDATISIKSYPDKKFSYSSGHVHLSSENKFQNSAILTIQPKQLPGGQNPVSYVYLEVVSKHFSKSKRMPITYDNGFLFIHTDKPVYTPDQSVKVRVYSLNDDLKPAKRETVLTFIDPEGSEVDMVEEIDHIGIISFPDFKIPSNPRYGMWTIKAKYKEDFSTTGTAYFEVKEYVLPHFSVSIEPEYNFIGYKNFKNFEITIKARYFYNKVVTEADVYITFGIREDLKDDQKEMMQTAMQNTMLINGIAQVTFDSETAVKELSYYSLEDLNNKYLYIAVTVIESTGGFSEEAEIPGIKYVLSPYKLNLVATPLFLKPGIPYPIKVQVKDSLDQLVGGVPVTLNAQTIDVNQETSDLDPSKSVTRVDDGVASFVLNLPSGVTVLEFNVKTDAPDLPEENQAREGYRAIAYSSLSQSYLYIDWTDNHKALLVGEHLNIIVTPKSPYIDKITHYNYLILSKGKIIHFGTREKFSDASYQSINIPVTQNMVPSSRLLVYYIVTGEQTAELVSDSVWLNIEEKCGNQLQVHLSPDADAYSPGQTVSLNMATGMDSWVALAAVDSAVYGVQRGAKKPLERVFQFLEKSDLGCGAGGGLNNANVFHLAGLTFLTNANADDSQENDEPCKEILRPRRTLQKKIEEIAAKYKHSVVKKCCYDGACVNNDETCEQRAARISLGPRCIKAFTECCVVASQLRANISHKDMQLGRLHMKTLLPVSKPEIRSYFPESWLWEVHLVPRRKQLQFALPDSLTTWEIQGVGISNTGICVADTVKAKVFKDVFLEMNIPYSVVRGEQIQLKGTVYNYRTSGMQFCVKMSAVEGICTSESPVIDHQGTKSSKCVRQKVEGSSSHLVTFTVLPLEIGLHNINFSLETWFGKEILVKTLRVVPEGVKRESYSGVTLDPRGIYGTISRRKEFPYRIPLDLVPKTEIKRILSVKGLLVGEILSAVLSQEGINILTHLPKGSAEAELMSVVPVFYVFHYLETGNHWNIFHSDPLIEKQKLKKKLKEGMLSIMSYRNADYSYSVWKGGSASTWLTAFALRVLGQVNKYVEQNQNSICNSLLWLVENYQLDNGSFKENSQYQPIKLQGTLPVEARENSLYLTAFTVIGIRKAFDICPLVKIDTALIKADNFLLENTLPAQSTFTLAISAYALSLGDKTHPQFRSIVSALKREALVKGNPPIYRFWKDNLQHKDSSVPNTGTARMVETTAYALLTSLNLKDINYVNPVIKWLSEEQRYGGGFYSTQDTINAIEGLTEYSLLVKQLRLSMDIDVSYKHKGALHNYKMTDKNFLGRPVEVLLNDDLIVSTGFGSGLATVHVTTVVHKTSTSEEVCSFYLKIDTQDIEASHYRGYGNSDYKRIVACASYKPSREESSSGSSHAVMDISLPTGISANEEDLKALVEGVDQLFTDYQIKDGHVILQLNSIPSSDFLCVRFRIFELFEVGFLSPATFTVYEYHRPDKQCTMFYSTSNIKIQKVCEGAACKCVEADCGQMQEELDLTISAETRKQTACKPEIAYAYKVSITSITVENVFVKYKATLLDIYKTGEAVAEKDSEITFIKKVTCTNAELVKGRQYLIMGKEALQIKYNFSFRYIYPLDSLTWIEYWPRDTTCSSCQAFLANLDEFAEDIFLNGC
In words: Red blood cell (RBC) hemolysis assay, luminescent (Example 13, Table 22). The data set is classed as cell-based. As to conditions: sheep EA cells, […] C5-depleted human serum, 0.5 nM human C5, 1 hour 37° C., luminescence. The source says:
Compound CU0136 is a racemic mixture of Compound CU0186 and CU0187. Numbers in parenthesis following compound numbers indicate alternate enantiomers (as distinguished by retention time during chromatographical separation).

Data set [4] has as its system P-glycoprotein (P-gp, MDR1). In words: Permeability assay, bidirectional transport, efflux ratio (Example 30, Table 34). The data set is classed as in vitro ADME, canine. The conditions noted are these: dog, MDCK-MDR1, pH 7.4; read-out: MDCK-MDR efflux ratio. The procedure:
Permeability assays were carried out to provide a preliminary indication of suitability for oral dosing and compound permeability across the blood brain barrier. Unidirectional and bidirectional compound transport across Madin Darby canine kidney (MDCK) cell monolayers was assessed. For unidirectional transport assessment, transport across MDCK wild type (MDCK-WT) cell monolayers was assessed. For bidirectional transport, transport across MDCK-MDR1 cell monolayers was assessed. MDCK-MDR1 cells express the MDR1 gene encoding the P-glycoprotein (P-gp) efflux protein.
MDCK-WT and MDCK-MDR1 cells were plated onto permeable polycarbonate supports in 12-well Costar transwell plates and allowed to grow and differentiate for 3 days. After 3 days in culture, the culture medium (DMEM supplemented with 10% FBS) was removed from both sides of the transwell inserts and cells were rinsed with warm HBSS. After the rinse step, the chambers were filled with warm transport buffer (HBSS containing 10 mM HEPES, 0.25% BSA, pH 7.4) and the plates were pre-incubated at 37° C. for 30 minutes prior to TEER (Trans Epithelial Electric Resistance) measurements.
The buffer in the donor chamber (apical side for A-to-B assay, basolateral side for B-to-A assay) was removed and replaced with the working solution (3 μM test compound and 10 μM for control compounds in transport buffer). The plates were then placed at 37° C. under light agitation. At designated time points (30, 60 and 90 min), an aliquot of transport buffer from the receiver chamber was removed and replenished with fresh transport buffer. Samples were quenched with ice-cold ACN containing internal standard and then centrifuged to pellet protein. Resulting supernatants were further diluted with 50/50 ACN/H2O (Atenolol diluted in just water) and submitted for LC-MS/MS analysis. Apparent permeability (Pap) values were calculated from duplicate determinations. Atenolol and propranolol were tested as low and […] permeability references.
Efflux ratios were calculated for bidirectional transport across MDCK-MDR1 cell monolayers as an indication of compound efflux by P-gp. The efflux ratio is calculated using the ratio of mean Papp values for B to A transport to mean Papp values for A to B transport [Papp(BA)/Papp(AB)].

In data set [5] the target is T2, human C5 complement protein (Homo sapiens, UniProt P01031). In words: Surface plasmon resonance (SPR), immobilized human C5, 37° C. (Example 18, Table 24). The data set is classed as binding. The conditions noted are these: lowest value obtained where a range of concentrations was analyzed. For orientation: SPR reads the build-up and loss of mass on a sensor chip optically.
T2 sequence (P01031 19-1676): as above

Data set [6] addresses T2, human C5 complement protein. In words: Surface plasmon resonance (SPR), immobilized human C5, 37° C. (Example 23, Table 28). In kind it is binding. The conditions noted are these: lowest value obtained where a range of concentrations was analyzed (Table 28).
The target of data set [7] is T1, Human C5. Kind of data set: Red blood cell (RBC) hemolysis assay, luminescent (Example 24, Table 29). In kind it is cell-based. As to conditions: sheep EA cells, […] C5-depleted human serum, 0.5 nM human C5, 1 hour at 37° C., luminescence (Table 29). The source says: (§1) Numbers in parenthesis following the compound number indicate alternate enantiomers (as distinguished by retention time during chromatographical separation).

Data set [8] concerns the target T1, Human C5. Kind of data set: Red blood cell (RBC) hemolysis assay, luminescent (Example 28, Table 32). The conditions noted are these: sheep EA cells, 1.5% C5-depleted human serum, 0.5 nM human C5, 1 hour at 37° C., luminescence (Table 32). The data set is classed as cell-based.
Data set [9] concerns the target T2, human C5 complement protein. Kind of data set: Surface plasmon resonance (SPR), immobilized human C5, 37° C. (Example 27, Table 31). As to conditions: lowest value obtained where a range of concentrations was analyzed (Table 31). In kind it is binding.
The target in data set [10] is T1, Human C5. In words: Surface plasmon resonance (SPR), compounds on immobilized human C5 (Example 2, Table 5). The data set is classed as binding. As to conditions: lowest value where a range of compound concentrations were analyzed.
Description: Surface plasmon resonance (SPR) technology was used to evaluate affinity, specificity, and kinetics of interactions between compounds and complement protein C5 in real time without the need for labeling.
SensiQ FE SPR system (SensiQ Technologies, Oklahoma City, Okla.) was used to provide sensitive and accurate detection of binding of small molecules to the very large C5 protein (MW=195,000 Da). The chip was prepared by preconditioning the sensor according to the protocol of the SensiQ FE using 10 mM HCl, 50 mM NAOH and 0.1% SDS. The sensor chip was activated by using a mixture of fresh EDAC (1-ethyl-3-(-3-dimethylaminopropyl) carbodiimide) (Sigma Co., St. Louis, Mo.) and NHS (N-hydroxy succinimide) (Sigma Co., St. Louis, Mo.). Human C5 was surface immobilized to a Pioneer Biosensor chip via random amine coupling (>12,000 RU) which makes use of the N-terminus and ε-amino groups of lysine residues of the protein ligand. Immobilization was done by injecting 30-40 μg/ml C5 in 10 mM NaAc pH 4.5 onto designated channels at a rate of 10 μL/minute for 12 minutes, targeting RL>12000 RU for small molecules.
Compounds were diluted in DMSO in a format of 100-fold final concentration and 3-fold serial dilution (5 or 6 dilutions). The 100-fold compounds were transferred to one-fold DMSO-free assay buffer in the 96-well test plate. The compound solution was injected at a rate of 60 μL/minute for 30-60 seconds, followed by 60-90 seconds dissociation time, buffer flushing and/or priming. Blank solution (1% DMSO assay buffer) was run for every 6 injections of compounds. Double reference by subtracting both blank channel and reference channel was applied for data processing. Titration of C5 binding compounds to the C5-immobilized biosensor chip surface led to interactions between C5 and potential binders, and the resulting changes of surface refractive index were sensitively measured by the system.
SPR data were analyzed with the managing software provided by SensiQ and equilibrium dissociation constant (KD) values were determined for each compound. Where a range of compound concentrations were analyzed, the lowest value obtained is presented.
For data set [11], the target named is purified human C5 (Homo sapiens, UniProt P01031). In words: Red blood cell hemolysis assay, optical, absorbance 412 nm (Example 3, Table 6). In kind it is cell-based. As to conditions: antibody-sensitized sheep erythrocytes, 1.5% human C5 depleted sera, 0.5 nM human C5; average where replicates.
Sequence of purified human C5 (P01031 19-1676): as above
Description: Experiments were carried out using a red blood cell (RBC) hemolysis assay to assess compound inhibition of RBC lysis. […] The assay was carried out using 1.5% human C5 depleted sera and 0.5 nM purified human C5.
GVB++ buffer (Complement Technology, Tyler, Tex.) was heated at 37° C. for a minimum of 20 minutes. The human C5 depleted sera and purified human C5 were rapidly thawed at 37° C. and then stored on ice or wet ice, respectively. The compound stock (10 mM, DMSO) was serially diluted in 100% DMSO to obtain ten 6-fold dilutions before addition of GVB++. Sera dilution was prepared by adding 5 mL of GVB++ to a 15 mL conical tube, removing 600 μL of the GVB++ and adding 600 μL of the 100% sera. The tube was mixed by inverting three times. A volume of 25 μL of the diluted sera was added to each well so that the final concentration of sera in the well was 1.5%. C5 dilution was prepared by adding 5 mL of GVB++ to a 15 mL conical tube, removing 4 μL of the GVB++ and adding 4 μL of the C5 stock. The tube was mixed by inverting three times. A volume of 25 μL was added to each well so that the final amount of C5 was 0.5 nM in each well. The antibody-sensitized sheep erythrocytes (EAs) were centrifuged at 1,000× gravity at 22° C. for 3 minutes. The supernatant was pipetted off without disrupting the pellet. The pellet was then resuspended in GVB++ with the same volume removed. Resuspended EAs were mixed by gently inverting the tube.
Five controls were run on each plate: (1) EAs only=100 μL EAs+50 μL GVB++ with 4% DMSO+50 μL GVB++; (2) EA+Sera=100 μL EAs+50 μL GVB++ with 4% DMSO+25 μL Sera dilution+25 μL GVB++; (3) EA+C5=100 μL EAs+50 μL GVB++ with 4% DMSO+25 μL C5 dilution+25 μL GVB++; (4) EA+Sera+C5=100 μL EAs+50 μL GVB++ with 4% DMSO+25 μL Sera dilution+25 μL C5; (5) GVB++ Only=200 μL GVB++. Other wells included: GVB++ with 4% DMSO=20 μL DMSO+480 μL GVB++. All samples were analyzed in duplicate. The compound dose response curve was generated using samples prepared with 100 μL EA+50 μL compound dilution+25 μL C5 dilution+25 μL sera dilution.
Test plates were prepared by adding 100 μL of EAs, 50 μL of compound dilution, 25 μL of sera dilution, and 25 μL of C5 dilution to individual wells of a 96-well tissue culture-treated clear microtitre plate (USA Scientific, Ocala, Fla.) and resuspending by pipetting up and down three times. The samples were incubated at 37° C. for one hour. At the completion of the incubation, the plates were centrifuged at 1,000× gravity for 3 minutes. 100 μl of supernatant were transferred to a new plate and the absorbance was read at 412 nm. Data was fit with a log-logit formula producing a dose-response curve and IC50.
“IC50” refers to the half maximal inhibitory concentration, where the value is the concentration of the inhibitor needed to reduce red blood cell hemolysis by half. Where replicate analysis was conducted, average IC50 values are provided along with standard deviation (SD) values.
The subject of data set [12] is CD59-deficient RBCs from patients with paroxysmal nocturnal hemoglobinuria (PNH). Kind of data set: Hemolysis inhibition with PNH patient cells, flow cytometry for CD59 and plate assay (Example 6). In kind it is cell-based, human. The conditions noted are these: FIG. 2.
Description: Flow cytometry studies were carried out to assess the ability of compounds to inhibit hemolysis of CD59-deficient RBCs from patients with paroxysmal nocturnal hemoglobinuria (PNH). […] To induce hemolysis, donor-matched serum was acidified to pH 6.4 with HCl. Compounds, serum, and RBCs, 2.5% volume per volume (v/v), were incubated for 18 hours at 37° C. After incubation, cells were washed and re-suspended in 1 ml fluorescence-associated cell sorting (FACS) buffer (0.1% BSA IgG-free in PBS, 0.1% Sodium Azide). Then, anti-CD59 antibody conjugated with phycoerythrin was added at a final concentration of 0.25 μg/ml to 100 μl of cell suspension and incubated at 4° C. for 30 minutes. Cells were then washed twice with cold FACS buffer, re-suspended in FACS buffer and analyzed with a BD Accuri C6 Flow Cytometer (BD Biosciences, San Jose, Calif.) for CD59 levels. The level of CD59-positive cells was monitored as a measure of complement-mediated hemolysis of PNH type III cells. A negative control using non-acidified serum was used to establish a baseline of CD59 expression under non-hemolytic conditions (FIG. 1A).
Data set [13] addresses T1, Human C5. In words: Hemolysis assay, luminescent, classical complement pathway (Example 4, Table 7). In kind it is cell-based. The conditions noted are these: sheep EA cells, 1.5% C5-depleted human serum, 0.5 nM human C5, luminescence readout.
Source text: as §1

Data set [14] in a line: Drug-Metabolism-and-Pharmacokinetics (DMPK), single IV and oral dose in rats (Example 5). As to conditions: rat, in vivo; fasted male Sprague Dawley rats, 1 mg/kg IV and 10 mg/kg PO, 5% DMSO: 20% HP-Beta-CD. The procedure: Single intravenous (IV) and oral dose (P0, per oral) administration of C5 inhibitors were carried out in rats. Rats were then analyzed for Drug-Metabolism-and-Pharmacokinetic (DMPK) properties, used to determine the pharmacokinetics and oral bioavailability of the C5 inhibitors.
SM0011 was formulated as a clear solution at 1 mg/mL in 5% DMSO: 20% HP-Beta-CD. Fasted male Sprague Dawley rats were dosed with the solution at 1 MPK (mg/kg) IV and 10 MPK (mg/kg) PO. Analysis of the DMPK properties of the compound were used to determine the bioavailability.

≈ marks a conversion by molar mass, not a printed value.

By Papp A→B is commonly meant how fast a substance crosses the layer from the apical side. As a reminder, the kinetic solubility is solubility judged after dilution from a stock solution rather than from solid. As a reminder, the IC50 is the point on the concentration scale where inhibition reaches its midpoint. Take `CCCCCOc1cc(N2CCCN(Cc3ccnc4c3c(Cl)cn4CC(=O)N(C)C)C2=O)ccc1OC` [CU0261]: the Papp A→B at 3 μM in data set [1] was found to be 26.1 ×10⁻⁶ cm/s. This compound yielded a kinetic solubility in data set [2] of 31 µM (≈ 16.8 µg/mL). The compound also had a half-inhibitory concentration (IC50) in [3] of 11 nM. In data set [4], the efflux ratio at 3 μM came out at 17.
The Kd is the free concentration of one partner at which half of the binding sites on the other are occupied at equilibrium, for simple one-to-one binding. A high value points to a looser complex. In data set [1], `CCCCCOc1cc(N2CCCN(Cc3ccnc4c3c(Cl)cn4CC(=O)N(C)CC#N)C2=O)ccc1OC` [CU0529] showed a Papp A→B at 3 μM of 17.1 ×10⁻⁶ cm/s. In addition, the Kd in [5] stood at 0.322 nM. Further, the kinetic solubility in data set [2] was 50 µM (≈ 28.4 µg/mL). Further, the efflux ratio at 3 μM in data set [4] worked out at 75.
As for `COc1cc(CC(=O)N(C)C)ccc1CN1CCCN(c2ccc(OC)c(OCCCC3CC3)c2)C1=O` [CU0555], the Papp A→B at 3 μM in data set [1] was found to be 23 ×10⁻⁶ cm/s. In data set [5], this compound showed a Kd of 1.06 nM. The efflux ratio at 3 μM in data set [4] turned out to be 15.
In turn, `CCCCCOc1cc(N2CCCN(Cc3ccnc4c3c(Cl)cn4CC(=O)N(C)C)C2=O)ncc1OC` [CU0558] yielded a Papp A→B at 3 μM in data set [1] of 25.2 ×10⁻⁶ cm/s. For the same compound, the Kd in [5] worked out at 0.152 nM. This compound yielded a kinetic solubility in data set [2] of 271 µM (≈ 147 µg/mL). Moreover, the efflux ratio at 3 μM in data set [4] came out at 9.
Consider `CCCCCOc1cc(N2CCCN(Cc3ccnc4c3c(Cl)cn4CC(=O)N3CCC3)C2=O)ccc1OC` [CU0560], for which, in data set [1], the Papp A→B at 3 μM was 23 ×10⁻⁶ cm/s. For the same compound, the Kd in [5] is 0.054 nM. The solubility (kinetic) in [2] was 31 µM (≈ 17.2 µg/mL). Also, the efflux ratio at 3 μM in [4] was determined as 23.
`CCCCCOc1cc(N2CC3(CC3)CN(Cc3ccccc3OC)C2=O)ccc1OC` [SC0064] gave a Kd in data set [6] of 11.1 nM. In data set [7], this compound returned an IC50 of 23.7 nM.
Turning to `CCCCCOc1cc(N2CC3(COC3)CN(Cc3ccccc3OC)C2=O)ccc1OC` [SC0066], binding in data set [6] was put at a Kd of 43.7 nM. Besides, inhibition in data set [7] was half-maximal at 39.7 nM (IC50).
In data set [1], `CCCCCOc1cc(N2CC[C@H](C)N(Cc3ccnc4c3c(Cl)cn4CC(=O)N3CC[C@H](N4CCOCC4)C3)C2=O)ccc1OC` [SC0100] returned a Papp A→B at 3 μM of 14.3 ×10⁻⁶ cm/s. Besides, half-maximal inhibition in data set [8] (IC50) required 0.9 nM. For the same compound, the efflux ratio at 3 μM in data set [4] was determined as 62.
The like results for `COc1cc(CC(=O)N[C@@H]2CN(C)C[C@@H]2F)ccc1CN1C(=O)N(c2ccc(OC)c(OCCCC3CC3)c2)CC[C@@H]1C` [SC0109] were, in that order, 5.7 ×10⁻⁶ cm/s, 1.2 nM and 144.
Take `CCCCCOc1cc(N2CC[C@@H](C)N(Cc3cccc4c3c(Cl)cn4CC(=O)N(C)C)C2=O)ccc1OC` [SC0110]: the Papp A→B at 3 μM in data set [1] amounted to 15.3 ×10⁻⁶ cm/s. Moreover, the IC50 in data set [8] came out at 1.3 nM. Moreover, the efflux ratio at 3 μM in data set [4] was determined as 18.
With `CCCCCOc1cc(N2CC[C@H](C)N(Cc3cccc4c3c(Cl)cn4CC(=O)N(C)C)C2=O)ccc1OC` [SC0112], the Papp A→B at 3 μM in data set [1] was 16.4 ×10⁻⁶ cm/s. Moreover, the kinetic solubility in data set [2] was 13 µM (≈ 7.22 µg/mL). This compound also registered a Kd in data set [9] of 0.28 nM. Also, the IC50 in [8] is 1.3 nM. The efflux ratio at 3 μM in data set [4] stood at 12.
The like results for `CCCCCOc1cc(N2CC[C@H](C)N(Cc3ccnc4c3c(Cl)cn4CC(=O)N3CC(O)C3)C2=O)ccc1OC` [SC0120] were, in that order, 6.6 ×10⁻⁶ cm/s, 96 µM (≈ 56.1 µg/mL), 0.01 nM, 1.5 nM and 98.
In data set [10], `COc1ccc(NC(=O)NC(CO)c2ccccc2O)cc1OCCCC(C)C` (stereo not shown) [SM0001, 1-(2-hydroxy-1-(2-hydroxyphenyl)ethyl)-3-(4-methoxy-3-((4-methylpentyl)oxy)phenyl)urea] came in with a Kd of 49 nM. Moreover, the half-inhibitory concentration (IC50) in data set [11] amounted to 20.9 nM. Also, the “inhibition of PNH patient hemolysis with increasing concentrations” value in data set [12] is “dose-dependent manner”.
The term bioavailability denotes the share of a dose that reaches the circulation, judged against a reference dose that is usually intravenous. In the case of `COc1ccc(NC(=O)N[C@@H](CO)c2ccccc2)cc1OCCCC(C)C` [SM0011], the IC50 came to 60.2 nM in data set [13] and 266 nM in data set [11]. In [14], this compound had a bioavailability of approximately 30%. This compound came in with a Kd in data set [10] of 157 nM.
